Measurements as given in the supplement of paper PMC11061612.

What was measured:
Assay in all cases: Bliss excess, mean over the matrix (fraction); higher = more synergy
EW-16 (Ewing's Sarcoma) = tested on: EW-16 (Ewing's Sarcoma)
Summary of the method: (§1)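 Cell lines in DMEM/F12 or RPMI with 10% FBS were plated in 1536-well plates, held 24 hours at 37°C, 5% CO2, then given two-drug dose matrices for 72 hours (DMSO typically 0.2%). Viability was read by CellTiter-Glo 2.0 luminescence and scaled as inhibition from 0 (vehicle wells) to 1 (blank wells). Combination Emax is the second-highest inhibition in the matrix; Bliss excess is observed combination effect minus expected EA + EB − EA·EB, EA and EB being single-agent effects.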

A204 (Rhabdomyosarcoma) = tested on: A204 (Rhabdomyosarcoma)
Summary of the method: as §1

[1] = tested on: JHH-2 (Hepatocellular Carcinoma)
Summary of the method: as §1

[2] = tested on: 22RV1 (Prostate Carcinoma)
Summary of the method: as §1

[3] = tested on: Jurkat (T-Lymphoblastic Leukemia)
Summary of the method: as §1

NB13 (Neuroblastoma) = tested on: NB13 (Neuroblastoma)
Summary of the method: as §1

[4] = tested on: LU-165 (Small Cell Lung Carcinoma)
Summary of the method: as §1

[5] = tested on: GCT (Other Solid Carcinomas)
Summary of the method: as §1

5637 (Bladder Carcinoma) = tested on: 5637 (Bladder Carcinoma)
Summary of the method: as §1

KP-N-YN (Neuroblastoma) = tested on: KP-N-YN (Neuroblastoma)
Summary of the method: as §1

RH-41 (Rhabdomyosarcoma) = tested on: RH-41 (Rhabdomyosarcoma)
Summary of the method: as §1

[6] = tested on: NCI-H2087 (Lung Adenocarcinoma)
Summary of the method: as §1

[7] = tested on: JHU-022 (Oral Cavity Carcinoma)
Summary of the method: as §1

[8] = tested on: NCI-H2228 (Lung Adenocarcinoma)
Summary of the method: as §1

[9] = tested on: EPLC-272H (Other Solid Carcinomas)
Summary of the method: as §1

[10] = tested on: LS-411N (Colorectal Carcinoma)
Summary of the method: as §1

[11] = tested on: JIMT-1 (Breast Carcinoma)
Summary of the method: as §1

IM-9 (Non-Cancerous) = tested on: IM-9 (Non-Cancerous)
Summary of the method: as §1

[12] = tested on: JVM-2 (B-Cell Non-Hodgkin's Lymphoma)
Summary of the method: as §1

[13] = tested on: KYSE-220 (Esophageal Squamous Cell Carcinoma)
Summary of the method: as §1

CC(=O)c1c(C)c2cnc(Nc3ccc(N4CCNCC4)cn3)nc2n(C2CCCC2)c1=O [Palbociclib] + Cn1cnc2c(F)c(Nc3ccc(Br)cc3Cl)c(C(=O)NOCCO)cc21 [Selumetinib] (first compound max 10 µM, 7x7, partner max 10 µM)
Bliss excess (EW-16 (Ewing's Sarcoma)): -0.0095
Bliss excess (A204 (Rhabdomyosarcoma)): -0.0261
Bliss excess [1]: 0.0347
Bliss excess [2]: 0.0328
Bliss excess [3]: -0.0297
Bliss excess (NB13 (Neuroblastoma)): -0.0391
Bliss excess [4]: -0.0518
Bliss excess [5]: -0.0369
Bliss excess (5637 (Bladder Carcinoma)): -0.0288
Bliss excess (KP-N-YN (Neuroblastoma)): -0.0253
Bliss excess (RH-41 (Rhabdomyosarcoma)): -0.0076
Bliss excess [6]: -0.0101
Bliss excess [7]: 0.0858
Bliss excess [8]: -0.0822
Bliss excess [9]: 0.024
Bliss excess [10]: 0.0131
Bliss excess [11]: -0.0436
Bliss excess (IM-9 (Non-Cancerous)): 0.0248
Bliss excess [12]: 0.0271
Bliss excess [13]: 0.0235

Cn1cnc2c(F)c(Nc3ccc(Br)cc3Cl)c(C(=O)NOCCO)cc21 [Selumetinib] + C=CCn1c(=O)c2cnc(Nc3ccc(N4CCN(C)CC4)cc3)nc2n1-c1cccc(C(C)(C)O)n1 [AZD1775] (first compound max 10 µM, partner max 1 µM)
Bliss excess (EW-16 (Ewing's Sarcoma)): -0.0214
Bliss excess (A204 (Rhabdomyosarcoma)): -0.0511
Bliss excess [1]: -0.0571
Bliss excess [2]: 0.0454
Bliss excess [3]: -0.0309
Bliss excess (NB13 (Neuroblastoma)): -0.0591
Bliss excess [4]: -0.0589
Bliss excess [5]: -0.0074
Bliss excess (5637 (Bladder Carcinoma)): -0.0306
Bliss excess (KP-N-YN (Neuroblastoma)): -0.0751
Bliss excess (RH-41 (Rhabdomyosarcoma)): -0.0189
Bliss excess [6]: 0.0084
Bliss excess [7]: 0.0283
Bliss excess [8]: -0.0613
Bliss excess [9]: -0.0607
Bliss excess [10]: -0.0554
Bliss excess [11]: -0.0606
Bliss excess (IM-9 (Non-Cancerous)): -0.045
Bliss excess [12]: -0.071
Bliss excess [13]: -0.0391

CC(=O)c1c(C)c2cnc(Nc3ccc(N4CCNCC4)cn3)nc2n(C2CCCC2)c1=O [Palbociclib] + CC1(C)CCC(CN2CCN(c3ccc(C(=O)NS(=O)(=O)c4ccc(NCC5CCOCC5)c([N+](=O)[O-])c4)c(Oc4cnc5[nH]ccc5c4)c3)CC2)=C(c2ccc(Cl)cc2)C1 [Venetoclax] (first compound max 10 µM, 7x7, partner max 1 µM)
Bliss excess (EW-16 (Ewing's Sarcoma)): 0.0564
Bliss excess (A204 (Rhabdomyosarcoma)): 0.0194
Bliss excess [1]: 0.0031
Bliss excess [2]: -0.0571
Bliss excess [3]: 0.0157
Bliss excess (NB13 (Neuroblastoma)): -0.103
Bliss excess [4]: -0.0502
Bliss excess [5]: 0.0353
Bliss excess (5637 (Bladder Carcinoma)): -0.0149
Bliss excess (KP-N-YN (Neuroblastoma)): -0.0844
Bliss excess (RH-41 (Rhabdomyosarcoma)): -0.0019
Bliss excess [6]: -0.0596
Bliss excess [7]: -0.0613
Bliss excess [8]: 0.005
Bliss excess [9]: -0.0106
Bliss excess [10]: -0.0247
Bliss excess [11]: -0.0448
Bliss excess (IM-9 (Non-Cancerous)): 0.0389
Bliss excess [12]: -0.0273
Bliss excess [13]: -0.081

C=CCn1c(=O)c2cnc(Nc3ccc(N4CCN(C)CC4)cc3)nc2n1-c1cccc(C(C)(C)O)n1 [AZD1775] + O=C(c1cc(Cc2n[nH]c(=O)c3ccccc23)ccc1F)N1CCN(C(=O)C2CC2)CC1 [Olaparib] (first compound max 1 µM, partner max 10 µM)
Bliss excess (EW-16 (Ewing's Sarcoma)): -0.0129
Bliss excess (A204 (Rhabdomyosarcoma)): -0.0881
Bliss excess [1]: -0.0609
Bliss excess [2]: -0.0296
Bliss excess [3]: -0.0088
Bliss excess (NB13 (Neuroblastoma)): 0.0008
Bliss excess [4]: -0.103
Bliss excess [5]: -0.0327
Bliss excess (5637 (Bladder Carcinoma)): -0.0551
Bliss excess (KP-N-YN (Neuroblastoma)): -0.144
Bliss excess (RH-41 (Rhabdomyosarcoma)): -0.0484
Bliss excess [6]: -0.0212
Bliss excess [7]: -0.0257
Bliss excess [8]: 0.0107
Bliss excess [9]: 0.0169
Bliss excess [10]: -0.0608
Bliss excess [11]: -0.0795
Bliss excess (IM-9 (Non-Cancerous)): -0.0305
Bliss excess [12]: 0.0055
Bliss excess [13]: -0.0428

C=CCn1c(=O)c2cnc(Nc3ccc(N4CCN(C)CC4)cc3)nc2n1-c1cccc(C(C)(C)O)n1 [AZD1775] + C[C@@H]1COCCN1C2=NC(=NC(=C2)C3(CC3)[S@](=N)(=O)C)C4=C5C=CNC5=NC=C4 [AZD6738] (first compound max 1 µM, partner max 10 µM)
Bliss excess (EW-16 (Ewing's Sarcoma)): 0.0132
Bliss excess (A204 (Rhabdomyosarcoma)): -0.0421
Bliss excess [1]: -0.0817
Bliss excess [2]: -0.0536
Bliss excess [3]: 0.038
Bliss excess (NB13 (Neuroblastoma)): 0.0101
Bliss excess [4]: -0.0127
Bliss excess [5]: 0.0157
Bliss excess (5637 (Bladder Carcinoma)): 0.007
Bliss excess (KP-N-YN (Neuroblastoma)): -0.005
Bliss excess (RH-41 (Rhabdomyosarcoma)): 0.0493
Bliss excess [6]: -0.0317
Bliss excess [7]: -0.0276
Bliss excess [8]: -0.0399
Bliss excess [9]: 0.0036
Bliss excess [10]: 0.0732
Bliss excess [11]: -0.01
Bliss excess (IM-9 (Non-Cancerous)): 0.0274
Bliss excess [12]: 0.0203
Bliss excess [13]: 0.0242

NC1(C(=O)N[C@@H](CCO)c2ccc(Cl)cc2)CCN(c2ncnc3[nH]ccc23)CC1 [Capivasertib] + CC(=O)c1c(C)c2cnc(Nc3ccc(N4CCNCC4)cn3)nc2n(C2CCCC2)c1=O [Palbociclib] (first compound max 10 µM, 7x7, partner max 10 µM)
Bliss excess (EW-16 (Ewing's Sarcoma)): 0.0029
Bliss excess (A204 (Rhabdomyosarcoma)): -0.0496
Bliss excess [1]: -0.0028
Bliss excess [2]: 0.0306
Bliss excess [3]: 0.0314
Bliss excess (NB13 (Neuroblastoma)): -0.076
Bliss excess [4]: -0.0886
Bliss excess [5]: -0.0569
Bliss excess (5637 (Bladder Carcinoma)): -0.0521
Bliss excess (KP-N-YN (Neuroblastoma)): -0.043
Bliss excess (RH-41 (Rhabdomyosarcoma)): -0.047
Bliss excess [6]: -0.03
Bliss excess [7]: -0.0186
Bliss excess [8]: -0.0216
Bliss excess [9]: -0.0065
Bliss excess [10]: -0.0119
Bliss excess [11]: -0.0115
Bliss excess (IM-9 (Non-Cancerous)): 0.0229
Bliss excess [12]: -0.036
Bliss excess [13]: 0.0407

CCN(CCO)CCCOc1ccc2c(Nc3cc(CC(=O)Nc4cccc(F)c4)[nH]n3)ncnc2c1 [AZD2811] + C[C@@H]1COCCN1C2=NC(=NC(=C2)C3(CC3)[S@](=N)(=O)C)C4=C5C=CNC5=NC=C4 [AZD6738] (first compound max 1 µM, 7x7, partner max 10 µM)
Bliss excess (EW-16 (Ewing's Sarcoma)): -0.018
Bliss excess (A204 (Rhabdomyosarcoma)): -0.0492
Bliss excess [1]: -0.0196
Bliss excess [2]: -0.103
Bliss excess [3]: 0.0336
Bliss excess (NB13 (Neuroblastoma)): -0.0727
Bliss excess [4]: -0.0637
Bliss excess [5]: -0.0318
Bliss excess (5637 (Bladder Carcinoma)): -0.0712
Bliss excess (KP-N-YN (Neuroblastoma)): -0.0751
Bliss excess (RH-41 (Rhabdomyosarcoma)): -0.0477
Bliss excess [6]: -0.0712
Bliss excess [7]: -0.0357
Bliss excess [8]: -0.0184
Bliss excess [9]: 0.0137
Bliss excess [10]: -0.0366
Bliss excess [11]: -0.0203
Bliss excess (IM-9 (Non-Cancerous)): -0.0441
Bliss excess [12]: -0.0809
Bliss excess [13]: -0.0541
